Experiment [1] concerns the target T1, 5HT-uptake (Rattus norvegicus, UniProt P31652).
T1 construct: synaptosomes were freshly isolated from areas of rats' brains
As to the kind of experiment: biochemical. As to conditions: read-out: 5HT-uptake [10 μM], % inhibition.

In experiment [2] the target is NA-uptake (Rattus norvegicus, UniProt Q63380). As to the kind of experiment: biochemical. Conditions: read-out: NA-uptake [10 μM], % inhibition.
NA-uptake, sequence (Q63380 1-617): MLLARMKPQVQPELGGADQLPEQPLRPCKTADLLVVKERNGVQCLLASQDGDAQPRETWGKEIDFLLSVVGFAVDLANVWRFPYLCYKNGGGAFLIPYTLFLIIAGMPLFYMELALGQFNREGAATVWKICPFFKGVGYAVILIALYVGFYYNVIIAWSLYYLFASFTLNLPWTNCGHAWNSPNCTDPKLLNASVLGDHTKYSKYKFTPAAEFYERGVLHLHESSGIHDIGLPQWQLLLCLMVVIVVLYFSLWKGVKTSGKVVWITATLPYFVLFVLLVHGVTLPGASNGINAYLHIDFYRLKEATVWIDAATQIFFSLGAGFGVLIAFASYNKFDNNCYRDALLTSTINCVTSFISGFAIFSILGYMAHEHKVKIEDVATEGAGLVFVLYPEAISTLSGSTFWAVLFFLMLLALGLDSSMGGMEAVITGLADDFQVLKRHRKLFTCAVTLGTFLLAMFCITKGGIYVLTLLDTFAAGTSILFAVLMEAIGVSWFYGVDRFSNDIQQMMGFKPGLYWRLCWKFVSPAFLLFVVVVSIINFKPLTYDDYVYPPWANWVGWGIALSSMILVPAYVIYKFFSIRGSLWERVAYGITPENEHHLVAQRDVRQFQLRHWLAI

T1 sequence (P31652 whole entry): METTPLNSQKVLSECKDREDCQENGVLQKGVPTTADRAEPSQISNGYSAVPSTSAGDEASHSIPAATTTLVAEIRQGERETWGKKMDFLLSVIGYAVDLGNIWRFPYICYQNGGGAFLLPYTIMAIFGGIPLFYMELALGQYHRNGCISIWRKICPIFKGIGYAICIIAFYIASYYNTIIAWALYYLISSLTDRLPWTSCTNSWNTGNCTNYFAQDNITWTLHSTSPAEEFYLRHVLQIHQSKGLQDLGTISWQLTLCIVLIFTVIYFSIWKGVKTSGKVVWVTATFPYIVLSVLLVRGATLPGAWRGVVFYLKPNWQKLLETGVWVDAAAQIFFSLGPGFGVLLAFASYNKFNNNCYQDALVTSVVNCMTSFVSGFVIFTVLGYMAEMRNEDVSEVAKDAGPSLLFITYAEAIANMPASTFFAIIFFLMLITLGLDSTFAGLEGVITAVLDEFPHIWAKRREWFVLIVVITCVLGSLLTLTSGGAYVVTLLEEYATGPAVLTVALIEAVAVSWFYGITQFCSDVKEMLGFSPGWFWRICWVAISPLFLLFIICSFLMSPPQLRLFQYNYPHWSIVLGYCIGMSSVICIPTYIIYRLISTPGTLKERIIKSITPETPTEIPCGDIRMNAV

Consider `CN(C)C1(Cc2ccc(Cl)cc2)CCC(NC(=O)CCC(=O)N2CCN(C(=O)c3cccc(Cl)c3)CC2)CC1` (stereo not shown) [Example 134, 4-[4-(3-chloro-benzoyl)-piperazin-1-yl]-N-[4-(4-chloro-benzyl)-4-dimethylamino-cyclohexyl]-4-oxo-butyramide], for which the inhibition at 10 µM was determined as 92% in experiment [1] and 101% in experiment [2].
The like results for `Cc1cccc(CC2(N(C)C)CCC(NC(=O)CCC(=O)N3CCN(c4ccc(Cl)cc4)CC3)CC2)c1` (stereo not shown) [Example 113, 4-[4-(4-chloro-phenyl)-piperazin-1-yl]-N-[4-dimethylamino-4-(3-methyl-benzyl)-cyclohexyl]-4-oxo-butyramide] were, in that order, 97% and 94%.
The like results for `COC(=O)C(Cc1ccc(Cl)cc1)NC(=O)CCC(=O)NC1CCC(Cc2ccc(C)cc2)(N(C)C)CC1` (stereo not shown) [Example 32, 3-(4-chloro-phenyl)-2-{3-[4-dimethylamino-4-(4-methyl-benzyl)-cyclohexylcarbamoyl]-propionylamino}-propanoic acid methylester] were, in that order, 99% and 97%.
`COc1ccc(CNC(=O)CCC(=O)NC2CCC(Cc3cccc(C)c3)(N(C)C)CC2)cc1` (stereo not shown) [Example 85, N-[4-dimethylamino-4-(3-methyl-benzyl)-cyclohexyl]-N′-(4-methoxy-benzyl)-succinamide]: the inhibition at 10 µM turned out to be 94% in experiment [1] and 100% in experiment [2].
For `C=CCOc1ccc(CN2CCN(C(=O)CCC(=O)NC3CCC(Cc4cccc(C)c4)(N(C)C)CC3)CC2)cc1` (stereo not shown) [Example 89, 4-[4-(4-allyloxy-benzyl)-piperazin-1-yl]-N-[4-dimethylamino-4-(3-methyl-benzyl)-cyclohexyl]-4-oxo-butyramide], the values for the inhibition at 10 µM in experiment [1] and in experiment [2] were 94% and 98%, respectively.
The like results for `CN(C)C1(Cc2cccc(Cl)c2)CCC(NC(=O)CCC(=O)NCc2cc(Cl)ccc2Cl)CC1` (stereo not shown) [Example 133, N-[4-(3-chloro-benzyl)-4-dimethylamino-cyclohexyl]-N′-(2,5-dichloro-benzyl)-succinamide] were, in that order, 93% and 97%.
Turning to `Cc1ccc(CC2(N(C)C)CCC(NC(=O)CCC(=O)NCC3CCCO3)CC2)cc1` (stereo not shown) [Example 45, N-[4-dimethylamino-4-(4-methyl-benzyl)-cyclohexyl]-N′-(tetrahydro-furan-2-ylmethyl)-succinamide], the inhibition at 10 µM in experiment [1] turned out to be 92%; in experiment [2], 77%.
`CCN(Cc1ccncc1)C(=O)CCC(=O)NC1CCC(Cc2ccc(Cl)cc2)(N(C)C)CC1` (stereo not shown) [Example 70, N-[4-(4-chloro-benzyl)-4-dimethylamino-cyclohexyl]-N′-ethyl-N′-pyridin-4-ylmethyl-succinamide]: the inhibition at 10 µM in experiment [1] amounted to 93%; in experiment [2] it was 96%.
Consider `Cc1ccc(CC2(N(C)C)CCC(NC(=O)CCC(=O)N3CCN(c4cccc(C)c4C)CC3)CC2)cc1` (stereo not shown) [Example 58, N-[4-dimethylamino-4-(4-methyl-benzyl)-cyclohexyl]-4-[4-(2,3-dimethyl-phenyl)-piperazin-1-yl]-4-oxo-butyramide], for which the inhibition at 10 µM in experiment [1] is 93%; in experiment [2] it was 79%.
The like results for `CC1CN(C(=O)CCC(=O)NC2CCC(Cc3ccc(Cl)cc3)(N(C)C)CC2)CC(C)O1` (stereo not shown) [Example 86, N-[4-(4-chloro-benzyl)-4-dimethylamino-cyclohexyl]-4-(2,6-dimethyl-morpholin-4-yl)-4-oxo-butyramide] were, in that order, 92% and 76%.
The like results for `Cc1ccc(CC2(N(C)C)CCC(NC(=O)CCC(=O)N3CCN(C(=O)OC(C)(C)C)CC3)CC2)cc1` (stereo not shown) [Example 28, 4-{3-[4-dimethylamino-4-(4-methyl-benzyl)-cyclohexylcarbamoyl]-propionyl}-piperazin-1-carboxylic acid-tert-butylester] were, in that order, 92% and 81%.
As for `CCOc1ccccc1CNC(=O)CCC(=O)NC1CCC(Cc2ccc(C)cc2)(N(C)C)CC1` (stereo not shown) [Example 138, N-[4-dimethylamino-4-(4-methyl-benzyl)-cyclohexyl]-N′-(2-ethoxy-benzyl)-succinamide], the values for the inhibition at 10 µM in experiment [1] and in experiment [2] were 92% and 84%, respectively.
Take `Cc1ccc(CC2(N(C)C)CCC(NC(=O)CCC(=O)N(C)CCc3ccccn3)CC2)cc1` (stereo not shown) [Example 38, N-[4-dimethylamino-4-(4-methyl-benzyl)-cyclohexyl]-N′-methyl-N′-(2-pyridin-2-yl-ethyl)-succinamide]: the inhibition at 10 µM in experiment [1] was 95%; in experiment [2], 79%.
The like results for `CN(C)C1(Cc2cccc(Cl)c2)CCC(NC(=O)CCC(=O)NCc2ccccn2)CC1` (stereo not shown) [Example 73, N-[4-(3-chloro-benzyl)-4-dimethylamino-cyclohexyl]-N′-pyridin-2-ylmethyl-succinamide] were, in that order, 93% and 87%.
With `CN(C)C1(Cc2ccc(Cl)cc2)CCC(NC(=O)CCC(=O)NCCc2cccc(F)c2)CC1` (stereo not shown) [Example 88, N-[4-(4-chloro-benzyl)-4-dimethylamino-cyclohexyl]-N′-[2-(3-fluoro-phenyl)-ethyl]-succinamide], the values for the inhibition at 10 µM in experiment [1] and in experiment [2] were 97% and 102%, respectively.
The like results for `COCC(Cc1ccccc1)NC(=O)CCC(=O)NC1CCC(Cc2cccc(Cl)c2)(N(C)C)CC1` (stereo not shown) [Example 123, N-[4-(3-chloro-benzyl)-4-dimethylamino-cyclohexyl]-N′-(1-methoxymethyl-2-phenyl-ethyl)-succinamide] were, in that order, 92% and 99%.
Consider `COc1cccc(N2CCN(C(=O)CCCC(=O)NC3CCC(Cc4ccccc4)(N(C)C)CC3)CC2)c1` (stereo not shown) [Example 91, 5-[4-(3-methoxy-phenyl)-piperazin-1-yl]-5-oxo-valeric acid (4-benzyl-4-dimethylamino-cyclohexyl)-amide], for which the figures for the inhibition at 10 µM in experiment [1] and in experiment [2] were 92% and 101%, respectively.
For the compound `CCC(C)C(NC(=O)CCC(=O)NC1CCC(Cc2cccc(C)c2)(N(C)C)CC1)C(=O)OC(C)(C)C` (stereo not shown) [Example 102, 2-{3-[4-dimethylamino-4-(3-methyl-benzyl)-cyclohexylcarbamoyl]-propionylamino}-3-methyl-valeric acid tert-butyl ester], the inhibition at 10 µM was found to be 94% in experiment [1] and 105% in experiment [2].
Taken in the same sequence, the figures for `Cc1cccc(CC2(N(C)C)CCC(NC(=O)CCC(=O)N3CCC(Cc4ccccc4)CC3)CC2)c1` (stereo not shown) [Example 103, 4-(4-benzyl-piperidin-1-yl)-N-[4-dimethylamino-4-(3-methyl-benzyl)-cyclohexyl]-4-oxo-butyramide] were 94% and 108%.
With `CN(C)C1(Cc2cccc(Cl)c2)CCC(NC(=O)CCC(=O)NCC2CCCO2)CC1` (stereo not shown) [Example 29, N-[4-(3-chloro-benzyl)-4-dimethylamino-cyclohexyl]-N′-(tetrahydro-furan-2-ylmethyl)-succinamide], the inhibition at 10 µM stood at 94% in experiment [1] and 91% in experiment [2].
Taken in the same sequence, the figures for `CC(CCc1ccccc1)NC(=O)CCC(=O)NC1CCC(Cc2ccc(Cl)cc2)(N(C)C)CC1` (stereo not shown) [Example 83, N-[4-(4-chloro-benzyl)-4-dimethylamino-cyclohexyl]-N′-(1-methyl-3-phenyl-propyl)-succinamide] were 93% and 105%.
The like results for `CN(CC(=O)OC(C)(C)C)C(=O)CCCC(=O)NC1CCC(Cc2ccccc2)(N(C)C)CC1` (stereo not shown) [Example 24, {[4-(4-benzyl-4-dimethylamino-cyclohexylcarbamoyl)-butyryl]-methyl-amino}-acetic acid tert butyl ester] were, in that order, 92% and 91%.
Take `CN(C)C1(Cc2ccc(Cl)cc2)CCC(NC(=O)CCC(=O)NCCC(c2ccccc2)c2ccccc2)CC1` (stereo not shown) [Example 3, N-[4-(4-chloro-benzyl)-4-dimethylamino-cyclohexyl]-N′-(3,3-diphenyl-propyl)-succinamide]: the inhibition at 10 µM is 94% in experiment [1] and 89% in experiment [2].
Turning to `CN(C)C1(Cc2ccc(Cl)cc2)CCC(NC(=O)CCC(=O)N2CCC3(CC2)OCCO3)CC1` (stereo not shown) [Example 65, N-[4-(4-chloro-benzyl)-4-dimethylamino-cyclohexyl]-4-(1,4-dioxa-8-aza-spiro[4.5]dec-8-yl)-4-oxo-butyramide], the inhibition at 10 µM in experiment [1] amounted to 92%; in experiment [2], 84%.
The like results for `CN(CCc1c[nH]c2ccccc12)C(=O)CCC(=O)NC1CCC(Cc2ccc(Cl)cc2)(N(C)C)CC1` (stereo not shown) [Example 57, N-[4-(4-chloro-benzyl)-4-dimethylamino-cyclohexyl]-N′-[2-(1H-indol-3-yl)-ethyl]-N′-methyl-succinamide] were, in that order, 93% and 100%.
The like results for `Cc1cccc(CC2(N(C)C)CCC(NC(=O)CCC(=O)N3CCC(C(=O)c4ccccc4)CC3)CC2)c1` (stereo not shown) [Example 67, 4-(4-benzoyl-piperidin-1-yl)-N-[4-dimethylamino-4-(3-methyl-benzyl)-cyclohexyl]-4-oxo-butyramide] were, in that order, 98% and 96%.
Turning to `COc1ccc(NC(=O)CCC(=O)NC2CCC(Cc3ccc(Cl)cc3)(N(C)C)CC2)cc1` (stereo not shown) [Example 108, N-[4-(4-chloro-benzyl)-4-dimethylamino-cyclohexyl]-N′-(4-methoxy-phenyl)-succinamide], the values for the inhibition at 10 µM in experiment [1] and in experiment [2] were 94% and 100%, respectively.
The like results for `Cc1cccc(CC2(N(C)C)CCC(NC(=O)CCC(=O)N3CCC(C)CC3)CC2)c1` (stereo not shown) [Example 20, N-[4-dimethylamino-4-(3-methyl-benzyl)-cyclohexyl]-4-(4-methyl-piperidin-1-yl)-4-oxo-butyramide] were, in that order, 92% and 90%.
The like results for `CC1CCN(C(=O)CCC(=O)NC2CCC(Cc3cccc(Cl)c3)(N(C)C)CC2)CC1` (stereo not shown) [Example 92, N-[4-(3-chloro-benzyl)-4-dimethylamino-cyclohexyl]-4-(4-methyl-piperidin-1-yl)-4-oxo-butyramide] were, in that order, 92% and 89%.

By inhibition is commonly meant the drop in the measured response relative to a control, in per cent.

For the origin of these results see US8088763B2 (priority 2004, dated 2012).
